These results are taken from PubChem BioAssay (NCI).

Test systems include SF-295 CNS; MDA-MB-435; 786-0 renal; SF-268 CNS; SK-OV-3 ovarian; KM12 colon; IGROV1 ovarian; M14 melanoma; SNB-75 CNS; EKVX NSCLC.
Common to all, as to assay: NCI anticancer screen, dose series, 48 h

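96-well plates; 48 h exposure; 5 concentrations. Endpoints by linear interpolation between flanking doses. Not reached: highest tested concentration assigned. TGI denotes the concentration required for complete inhibition of growth.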

Turning to `CS[C@]12[C@@H]3C(=O)N(C)C(=O)[C@@H]3[C@](C)(C(=O)N1C)C(=O)N2c1ccccc1`, the TGI in the experiment with SF-295 CNS, in the experiment with MDA-MB-435, with 786-0 renal, in the experiment on SF-268 CNS, in the experiment with SK-OV-3 ovarian and with KM12 colon was > 100 µM each time. The TGI in the experiment with IGROV1 ovarian, with M14 melanoma, in the experiment on SNB-75 CNS and with EKVX NSCLC was > 100 µM in each case.
As for `O=S(=O)(c1ccc(-c2nnc(-c3ccc(F)cc3)o2)cc1)c1ccc(-c2nnc(-c3ccc(F)cc3)o2)cc1`, the TGI was > 100 µM in the experiment with SF-295 CNS; > 100 µM in the experiment with MDA-MB-435; > 100 µM in the experiment on 786-0 renal; > 100 µM in the experiment with SF-268 CNS; 90.3 µM in the experiment on SK-OV-3 ovarian; > 100 µM in the experiment with KM12 colon. The TGI with IGROV1 ovarian was > 100 µM; with M14 melanoma it was > 100 µM; with SNB-75 CNS, 26 µM; in the experiment with EKVX NSCLC, > 100 µM.
As to `O=S(=O)(O)c1cccc2cccc(N=Nc3c(O)ccc4ccccc34)c12`, the TGI in the experiment with SF-295 CNS, with MDA-MB-435, in the experiment on 786-0 renal, in the experiment on SF-268 CNS, in the experiment on SK-OV-3 ovarian and with KM12 colon was > 100 µM in each case. For the same compound, the TGI in the experiment on IGROV1 ovarian, in the experiment on M14 melanoma, with SNB-75 CNS and in the experiment with EKVX NSCLC was > 100 µM each time.
Regarding `CCOC(=O)c1c(C)nc2c(c1-c1cn(-c3ccccc3)nc1-c1ccccc1)C(=O)c1ccccc1-2`, the TGI with SF-295 CNS, with MDA-MB-435, in the experiment on 786-0 renal, in the experiment on SF-268 CNS, with SK-OV-3 ovarian and with KM12 colon was > 100 µM each time. The TGI with IGROV1 ovarian, in the experiment on M14 melanoma, with SNB-75 CNS and in the experiment with EKVX NSCLC was > 100 µM each time.
As to `Cc1ccc(S(=O)(=O)[C@@H](Cl)[C@H]2N=C(Cl)NN=C2c2ccccc2)cc1`, the TGI is > 100 µM with SF-295 CNS; 51.4 µM in the experiment on MDA-MB-435; 85 µM with 786-0 renal; 38.8 µM in the experiment with SF-268 CNS; > 100 µM in the experiment on SK-OV-3 ovarian; 50 µM with KM12 colon. The TGI in the experiment with IGROV1 ovarian is 55.4 µM; in the experiment with M14 melanoma, 42.6 µM; with SNB-75 CNS, 97.4 µM; with EKVX NSCLC, > 100 µM.
With `C=C[C@@]1(O)CCCC[C@@H]1CC(Sc1ccccc1)Sc1ccccc1`, the TGI amounted to 27.8 µM in the experiment on SF-295 CNS; 33 µM with MDA-MB-435; 59.5 µM with 786-0 renal; 29 µM with SF-268 CNS; 31.6 µM in the experiment on SK-OV-3 ovarian; 37.9 µM in the experiment with KM12 colon. Also, the TGI is 29.2 µM in the experiment on IGROV1 ovarian, 37 µM in the experiment on M14 melanoma, 27.8 µM with SNB-75 CNS and 31.1 µM with EKVX NSCLC.
Regarding `CN1N=C(c2ccncc2)OC1c1cccc(C(F)(F)F)c1` (stereo not given), the TGI with SF-295 CNS, in the experiment with MDA-MB-435, with 786-0 renal, with SF-268 CNS, with SK-OV-3 ovarian and in the experiment on KM12 colon was > 100 µM throughout. The TGI was > 100 µM in the experiment with IGROV1 ovarian, > 100 µM in the experiment with M14 melanoma, 87.3 µM in the experiment on SNB-75 CNS and > 100 µM in the experiment on EKVX NSCLC.
Regarding `Cc1ccnc2nc(N)ccc12`, the TGI with SF-295 CNS, in the experiment with MDA-MB-435, with 786-0 renal, in the experiment with SF-268 CNS, with SK-OV-3 ovarian and in the experiment on KM12 colon was > 100 µM each time. Besides, the TGI in the experiment with IGROV1 ovarian, in the experiment on M14 melanoma, in the experiment on SNB-75 CNS and with EKVX NSCLC was > 100 µM in each case.
Consider `O=CC(O)C(O)C(O)C1CNC(=S)O1` (stereo not given), for which the TGI in the experiment on SF-295 CNS, with MDA-MB-435, in the experiment on 786-0 renal, with SF-268 CNS, in the experiment with SK-OV-3 ovarian and with KM12 colon was > 100 µM in each case. Moreover, the TGI with IGROV1 ovarian, in the experiment on M14 melanoma, in the experiment on SNB-75 CNS and in the experiment with EKVX NSCLC was > 100 µM throughout.
Consider `COc1ccccc1N=Nc1c(O)c(S(=O)(=O)O)cc2cc(S(=O)(=O)O)ccc12`, for which the TGI in the experiment on SF-295 CNS, in the experiment with MDA-MB-435, in the experiment with 786-0 renal, in the experiment with SF-268 CNS, in the experiment with SK-OV-3 ovarian and with KM12 colon was > 100 µM throughout. Further, the TGI in the experiment with IGROV1 ovarian, in the experiment on M14 melanoma, in the experiment with SNB-75 CNS and in the experiment on EKVX NSCLC was > 100 µM each time.
In the case of `CC(=O)NC1=C(NCCCl)C(=O)c2ccccc2C1=O`, the TGI with SF-295 CNS is > 100 µM; in the experiment with MDA-MB-435 it was 31.1 µM; in the experiment with 786-0 renal, > 100 µM; in the experiment on SF-268 CNS, > 100 µM; with SK-OV-3 ovarian, > 100 µM; in the experiment on KM12 colon, > 100 µM. Moreover, the TGI was > 100 µM in the experiment on IGROV1 ovarian, 27.7 µM in the experiment on M14 melanoma, > 100 µM in the experiment with SNB-75 CNS and > 100 µM in the experiment with EKVX NSCLC.
In the case of `Oc1ccccc1C1C=C(c2ccccc2)NC(N2CCCCC2)=C1c1nc2ccccc2[nH]1` (stereo not given), the TGI amounted to 29.2 µM in the experiment on SF-295 CNS; 29.6 µM in the experiment on MDA-MB-435; 25.7 µM in the experiment with 786-0 renal; 27.5 µM with SF-268 CNS; 26.4 µM in the experiment on SK-OV-3 ovarian; 31.3 µM with KM12 colon. Moreover, the TGI in the experiment on IGROV1 ovarian was found to be 27.8 µM; with M14 melanoma, 25.9 µM; in the experiment with SNB-75 CNS, 18.3 µM; in the experiment on EKVX NSCLC it was 18.8 µM.
